Measured values taken from patent US10548984B2 (priority 2015, dated 2020).
Non-standard residues stand in square brackets, D forms with d. Residues, ends and D or L forms follow the SMILES beside them.

How the values were obtained:
[1] = test system: mice; assay: Immunogenicity study (serum antibody ELISA); format: in vivo, mouse; details: i.v. injection
Experimental: Mice were injected intravenously with 50 μg of siRNA complexed with either the Test-Peptide or Test-RI Peptide vectors, with the peptide vector alone or with PBS as negative control for three consecutive days, and then on every alternate day for 14 days. […] To detect the presence of antibodies to the Test-Peptide or Test-RI-peptide, serum was collected from the mice on day 21 and serial double dilution (1:100 followed by 10 dilutions) of the sera was incubated in 384 well microtitre plate coated with either Test-Peptide or Test-RI-peptide (50 ng/well). The bound antibody was detected with a goat anti-mouse Ig-HRP conjugate.

[2] = test system: mice; details: mouse, in vivo
[3] = test system: nAchRs present on M17 cells; assay: Competitive binding assay and immunocytochemistry of biotinylated peptide on M17 cells; parameters: species or system human; details: avidin-FITC
Experimental: To confirm that the binding specificity of the peptide to the neuronal cells was mediated by its binding to nAchRs, a competition assay was performed using alpha bangarotoxin (BTX) peptide, which is a competitive antagonist for nAchRs.
M17 cells were incubated with the biotinylated-peptide (SEQ ID NO:2) (2.5 μM) in the absence or presence of BTX peptide (0.01 μM or 0.1 μM) at 4° C. for 1 hr, stained with avidin-FITC and analyzed by FACS.
Immunocytochemistry was used to confirm the binding of the peptide (SEQ ID NO:2) to M17 cells. M17 cells were incubated with or without biotinylated-peptides (SEQ ID NO:2) or with the MAT peptide which served as a negative control. The cells were then stained with avidin-FITC and viewed by fluorescence microscopy.

| Molecule | antibody response [1] | production of inflammatory cytokines [2] | inhibition of biotinylated-peptide (SEQ ID NO:2) binding to M17 cells ([3]; peptide 2.5 μM, BTX 0.01 μM or 0.1 μM, 4° C., 1 hr, FACS) | binding of peptide to M17 cells (FITC-positive immunostaining) ([3]; biotinylated peptide, fluorescence microscopy) |
| --- | --- | --- | --- | --- |
| CC[C@H](C)[C@H](NC(=O)[C@H](CC(=O)O)NC(=O)[C@@H](N)CS)C(=O)N[C@@H](Cc1ccccc1)C(=O)N[C@H](C(=O)N[C@@H](CC(N)=O)C(=O)N[C@@H](CO)C(=O)N[C@@H](CCCNC(=N)N)C(=O)NCC(=O)N[C@@H](CCCCN)C(=O)NCC(=O)NCC(=O)NCC(=O)NCC(=O)N[C@H](CCCNC(=N)N)C(=O)N[C@H](CCCNC(=N)N)C(=O)N[C@H](CCCNC(=N)N)C(=O)N[C@H](CCCNC(=N)N)C(=O)N[C@H](CCCNC(=N)N)C(=O)N[C@H](CCCNC(=N)N)C(=O)N[C@H](CCCNC(=N)N)C(=O)N[C@H](CCCNC(=N)N)C(=O)N[C@H](CCCNC(=N)N)C(=O)O)[C@@H](C)O [Test-peptide] (H-CDIFTNSRGKGGGG[dR][dR][dR][dR][dR][dR][dR][dR][dR]-OH; C-terminus assumed) | did not elicit an antibody response | did not elicit an antibody response or result in the production inflammatory cytokines |  |  |
| alpha bangarotoxin [BTX, reference compound] |  |  | inhibited peptide binding to M17 cells in a dose-dependent manner |  |
| CC[C@@H](C)[C@@H](NC(=O)[C@@H](Cc1ccccc1)NC(=O)[C@H](NC(=O)[C@@H](CC(N)=O)NC(=O)[C@@H](CO)NC(=O)[C@@H](CCCNC(=N)N)NC(=O)CNC(=O)[C@@H](CCCCN)NC(=O)CN(C)C(=O)CN(C)C(=O)CN(C)C(=O)CN(C)C(=O)[C@@H](CCCNC(=N)N)NC(=O)[C@@H](CCCNC(=N)N)NC(=O)[C@@H](CCCNC(=N)N)NC(=O)[C@@H](CCCNC(=N)N)NC(=O)[C@@H](CCCNC(=N)N)NC(=O)[C@@H](CCCNC(=N)N)NC(=O)[C@@H](CCCNC(=N)N)NC(=O)[C@@H](CCCNC(=N)N)NC(=O)[C@H](N)CCCNC(=N)N)[C@H](C)O)C(=O)N[C@H](CC(=O)O)C(=O)N[C@H](CS)C(=O)O [Test-RI-peptide, H-rrrrrrrrr-Sar-Sar-Sar-Sar-kGrsntfidc] | did not elicit an antibody response | did not elicit an antibody response or result in the production inflammatory cytokines |  |  |
| CDIFTNSRGK [peptide (SEQ ID NO:2), RVG derived 10 residue peptide] |  |  |  | binds specifically to neuronal cells |
